Experimental data published in BigSolDB 2.1.

CN(CCOc1ccc(CC2SC(=O)NC2=O)cc1)c1ccccn1 (configuration not stated)
solubility (mole fraction)
Settings | in acetone | in acetonitrile | in ethanol | in ethyl acetate | in isopropanol | in methanol | in methyl acetate | in n-butanol | in n-butyl acetate | in n-propanol
283.15 K | 0.00177 | 0.000267 | 0.000245 | 0.00123 | 0.00013 | 0.000139 | 0.00123 | 0.000341 | 0.000926 | 0.000276
293.15 K | 0.00278 | 0.000453 | 0.000341 | 0.00205 | 0.000173 | – | 0.00205 | 0.000371 | 0.00117 | 0.00028
303.15 K | 0.00455 | 0.000744 | 0.000458 | 0.003 | 0.000282 | 0.000444 | 0.00335 | 0.00042 | 0.00235 | 0.000323
313.15 K | 0.00691 | 0.00126 | 0.00067 | 0.00441 | 0.000529 | 0.000745 | 0.0052 | 0.00063 | 0.00355 | 0.000741
323.15 K | 0.00992 | – | 0.00124 | 0.00649 | 0.000992 | 0.00132 | 0.00795 | 0.00147 | 0.00505 | 0.00133
333.15 K | – | 0.00352 | 0.00244 | 0.0118 | 0.00218 | 0.00235 | 0.0126 | 0.00293 | 0.0092 | 0.0029
